Our source for the ED50 and ED30 values is US5061713A, “Analgesic oxazolopyridine compounds” (Science et Organization, priority 1989, dated 1991).

The ED50 is the dose at which the effect has come halfway, by size or by number of responders.

For experiment [1], the system named is writhing movements. The experiment in a line: analgesic activity, phenyl-p-benzoquinone writhing movements (technique derived from Siegmund). To be noted: Mus musculus; mice, oral, 1 hour before i.p. phenyl-p-benzoquinone; counted 5th to 10th minute; read-out: ED50, the dose producing a 50% activity (% decrease in the number of writhing movements). In kind it is in vivo. The method, then:
The activity against pain was investigated in mice (23-25 g) according to a protocol derived from the technique described by SIEGMUND (SIEGMUND E.A., R. A. CADMUS & GOLU, J. Pharm. Exp. Ther. 119, 184, 1957). The mice, randomized in batches of 12 animals, received the treatment orally (excipient for the controls) 1 hour before the intraperitoneal injection of a 0.02% aqueous-alcoholic solution of phenyl-p-benzoquinone (Sigma). The writhing movements are counted between the 5th and 10th minute after injection.
The percentage activity obtained was evaluated for each dose (% decrease in the number of writhing movements in the treated animals relative to the controls). An ED50, the dose producing a 50% activity, was determined for each product.
(In general: In writhing tests, fewer writhes than in controls are read as antinociception.)

Experiment [2] deals with edema. The experiment can be described thus: anti-inflammatory activity, acute inflammation induced by carrageenan in the rat hind foot (method of Winter). In kind it is in vivo. To be noted: rats, 1 hour before carrageenan, edema determined 3 hours after injection, read-out: ED30, the dose producing a 30% activity (percentage decrease in the mean edema). Here is the method:
The anti-inflammatory potential of the compounds was investigated on a model of acute inflammation induced by the subcutaneous injection of a solution of carrageenan into the rat hind foot, according to a technique based on the method of WINTER, C.A., E. A. RISLEY and G. N. NUSS (Proc. Soc. Exp. Med. 111, 554, 1962). The rats (100-120 g), randomized in batches of 8, were treated (including the controls, which receive excipient) 1 hour before the local injection of a 0.5% suspension of carrageenan (Sigma type IV; 0.1 ml per rat). The edema is determined 3 hours after injection, by plethysmometric measurement (UGO BASILE water plethysomometer) of the volume of each of the hind feet (edema=volume of the inflamed foot-volume of the non-inflamed foot).
The percentage activity corresponds to the percentage decrease in the mean edema of the batch compared with the mean of the corresponding control batch. An ED30, the dose producing a 30% activity, was determined.

For the compound `Fc1ccccc1-c1nc2ncccc2o1` [Example 6 of U.S. Pat. No. 4,038,396, 2-(2-fluorophenyl)oxazolo[4,5-b]pyridine], the ED50 in experiment [1] is approximately 12 mg/kg. Besides, the ED30 in experiment [2] came out at 50 mg/kg.
Turning to `CCCC(=O)c1ccnc2nc(-c3ccccc3)oc12` [Example 2, 2-PHENYL-7-BUTYRYLOXAZOLO[4,5-b]PYRIDINE], the median effective dose (ED50) in experiment [1] is approximately 5 mg/kg.
On the same count and under the same terms, in the case of `CCCC(=O)c1ccnc2nc(-c3ccccc3F)oc12` [Example 6, 2-(2-FLUOROPHENYL)-7-BUTYRYLOXAZOLO[4,5-b]PYRIDINE] it was approximately 8 mg/kg.
